From article PMC5363571 (Oncotarget, 2016)
Where a name gives a salt, the structure may show the parent alone.

target: USP7 (Homo sapiens, UniProt Q93009); test: biochemical; design: Ub-AMC hydrolysis by recombinant USP7 (20 nM), 30 min pre-incubation, fluorescence read-out; details: read-out: % Inhibition at 50 μM
Sequence (Q93009 whole entry): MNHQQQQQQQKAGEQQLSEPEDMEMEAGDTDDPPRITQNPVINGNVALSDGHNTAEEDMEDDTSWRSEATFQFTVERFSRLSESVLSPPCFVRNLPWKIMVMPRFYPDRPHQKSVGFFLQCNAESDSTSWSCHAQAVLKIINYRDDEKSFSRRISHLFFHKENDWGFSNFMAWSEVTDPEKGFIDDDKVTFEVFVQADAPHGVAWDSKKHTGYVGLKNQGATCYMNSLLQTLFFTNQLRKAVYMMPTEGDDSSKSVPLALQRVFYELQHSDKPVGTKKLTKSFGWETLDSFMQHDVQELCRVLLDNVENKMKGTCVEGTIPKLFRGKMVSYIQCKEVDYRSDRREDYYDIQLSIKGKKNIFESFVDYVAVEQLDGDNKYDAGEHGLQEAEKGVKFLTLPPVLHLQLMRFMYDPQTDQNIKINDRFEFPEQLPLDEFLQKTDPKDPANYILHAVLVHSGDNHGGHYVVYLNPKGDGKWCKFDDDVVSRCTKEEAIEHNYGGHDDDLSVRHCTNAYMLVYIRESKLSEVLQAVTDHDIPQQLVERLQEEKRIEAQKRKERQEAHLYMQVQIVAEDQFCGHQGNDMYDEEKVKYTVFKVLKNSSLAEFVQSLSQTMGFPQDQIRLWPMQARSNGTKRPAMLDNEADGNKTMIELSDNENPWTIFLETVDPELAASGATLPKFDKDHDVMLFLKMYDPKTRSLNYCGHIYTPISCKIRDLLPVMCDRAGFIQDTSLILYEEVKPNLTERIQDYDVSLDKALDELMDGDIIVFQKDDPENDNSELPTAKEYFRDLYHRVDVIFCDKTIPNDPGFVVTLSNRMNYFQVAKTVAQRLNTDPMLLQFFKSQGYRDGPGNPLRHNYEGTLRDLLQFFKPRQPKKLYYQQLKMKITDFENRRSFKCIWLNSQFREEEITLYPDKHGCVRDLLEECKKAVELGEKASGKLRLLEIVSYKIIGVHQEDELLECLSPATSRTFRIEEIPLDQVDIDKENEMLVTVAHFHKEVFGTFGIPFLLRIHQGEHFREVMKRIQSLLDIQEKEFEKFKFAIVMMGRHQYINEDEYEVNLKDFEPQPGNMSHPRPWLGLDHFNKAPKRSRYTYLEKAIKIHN

SMILES | inhibition at 50 µM [%]
CCN(CC)CC(=O)Nc1c(C)cccc1C [Lidocaine] | < 5
COc1cc(NS(=O)(=O)c2ccc(N)cc2)nc(OC)n1 [Sulfadimethoxine] | < 5
CC(NC(C)(C)C)C(=O)c1cccc(Cl)c1 (stereo not drawn) [Amfebutamone] | < 5
N=C(N)NC(=N)N1CCOCC1 [Moroxydine HCl] | 17.2
CN(C)C(=N)NC(=N)N [Metformin] | 8.6
CN[C@@H]1[C@H](O[C@H]2[C@H](O[C@H]3[C@H](O)[C@@H](O)[C@H](N=C(N)N)[C@@H](O)[C@@H]3N=C(N)N)O[C@@H](C)[C@]2(O)C=O)O[C@@H](CO)[C@H](O)[C@H]1O [Streptomycin sulfate] | < 5
C[C@H](CS)C(=O)N1CCC[C@H]1C(=O)O [Captopril] | < 5
Cc1cccc(C)c1NC1=NCCCS1 [Xylazine HCl] | < 5
CCC[C@@H]1C[C@@H](C(=O)N[C@@H]([C@H]2O[C@H](SC)[C@H](O)[C@@H](O)[C@H]2O)[C@@H](C)O)N(C)C1 [Lincomycin] | < 5
CC(C)OC(=O)CCC/C=C\C[C@@H]1[C@@H](CC[C@@H](O)CCc2ccccc2)[C@H](O)C[C@@H]1O [Latanoprost] | 6.9
CCCN1C[C@H](CSC)C[C@@H]2c3cccc4[nH]cc(c34)C[C@H]21 [Pergolide mesylate] | < 5
C=C(C)[C@@H]1CC[C@]2(C)CC[C@]3(C)[C@H](CC[C@@H]4[C@@]5(C)CC[C@H](O)C(C)(C)[C@@H]5CC[C@]43C)[C@@H]12 [Lupeol] | < 5
Clc1ccc(CCC(Cn2ccnc2)Sc2c(Cl)cccc2Cl)cc1 (stereo not drawn) [Butoconazole nitrate] | < 5
O=C1NC(=O)C(c2ccccc2)(c2ccccc2)N1 [Phenytoin] | < 5
CC(C)NCC(O)c1ccc2ccccc2c1 (stereo not drawn) [Pronethalol HCl] | 8.3
CN1CCC(=C2c3ccccc3C=Cc3ccccc32)CC1 [Cyproheptadine] | < 5
Nc1ccn([C@@H]2O[C@H](CO)[C@@H](O)C2(F)F)c(=O)n1 [Gemcitabine HCl] | 21.5
CC(C)(C)[C@]1(O)CCN2C[C@H]3c4ccccc4CCc4cccc(c43)[C@@H]2C1 [Butaclamol (+)] | < 5
C[C@H]1[C@H](C)CC[C@]2(C(=O)O)CC[C@]3(C)C(=CC[C@@H]4[C@@]5(C)C[C@@H](O)[C@H](O)[C@@](C)(CO)[C@@H]5[C@H](O)C[C@]43C)[C@H]12 [Madecassic acid] | < 5
CC/C(=C(\c1ccccc1)c1ccc(OCCN(C)C)cc1)c1ccccc1 [Tamoxifen citrate] | < 5
CC1(C)CC[C@]2(C(=O)O)CC[C@]3(C)C(=CC[C@@H]4[C@@]5(C)CC[C@H](O)C(C)(C)[C@@H]5CC[C@]43C)[C@@H]2C1 [Oleanolic acid] | 69.2
Cc1nc2c([nH]1)c(=O)n(C)c(=O)n2Cc1ccco1 [Furafylline] | < 5
NC1CCN(c2c(F)cc3c(=O)c(C(=O)O)cn(C4CC4)c3c2Cl)C1 (stereo not drawn) [Clinafloxacin HCl] | < 5
CC(C)C(=O)c1c(C(C)C)nn2ccccc12 [Ibudilast] | < 5
CCN(CC)CCOc1ccc(C(=C(Cl)c2ccccc2)c2ccccc2)cc1 [Clomiphene citrate] | < 5
C=C[C@H]1CN2CC[C@H]1C[C@H]2[C@H](O)c1ccnc2ccc(OC)cc12 [Quinine] | 16.9

SMILES | inhibition at 50 µM [%]
C[C@H]1O[C@@H](n2cc(F)c(=O)[nH]c2=O)[C@H](O)[C@@H]1O [Doxifluridine] | < 5
N[C@@H](Cc1cc(I)c(Oc2cc(I)c(O)c(I)c2)c(I)c1)C(=O)O [L-thyroxine [(3-[4-(4-hydroxy-3,5-diiodophenoxy)-3,5-diiodophenyl]-l-alanine]] | 65.3
CC(C)n1c(/C=C/[C@H](O)C[C@H](O)CC(=O)O)c(-c2ccc(F)cc2)c2ccccc21 [Fluvastatin Na] | < 5
COc1ccccc1O [Guaiacol] | < 5
COc1cc([C@@H]2c3cc4c(cc3[C@@H](O[C@@H]3O[C@@H]5CO[C@@H](C)O[C@H]5[C@H](O)[C@H]3O)[C@H]3COC(=O)[C@H]23)OCO4)cc(OC)c1O [Etoposide] | < 5
CC(C)NCC(O)COc1cccc2[nH]ccc12 (stereo not drawn) [Pindolol] | < 5
CN/C(=N\c1ccc(C2=NNC(=O)CC2C)cc1)NC#N (stereo not drawn) [Siguazodan] | < 5
Cn1ccnc1S [Methimazole] | < 5
CC[C@@H](CO)NC(=O)[C@@H]1C=C2c3cccc4c3c(cn4C)C[C@H]2N(C)C1 [Methysergide] | < 5
CC(C)(C)NCC(O)c1ccc(O)c(CO)c1 (stereo not drawn) [Salbutamol sulfate] | < 5
Cn1c(=O)c2[nH]cnc2n(C)c1=O [Aminophylline] | < 5
Clc1ccc2c(c1)C(N1CCNCC1)=Nc1ccccc1O2 [Amoxapine] | 16.8
Oc1ncnc2[nH]ncc12 [Allopurinol] | < 5
O=C1Nc2ccc(Cl)cc2[C@@](C#CC2CC2)(C(F)(F)F)O1 [Efavirenz] | 29.8
CC(C)CC(N(C)C)C1(c2ccc(Cl)cc2)CCC1 (stereo not drawn) [Sibutramine HCl] | < 5
CCCOc1ccccc1-c1nc2[nH]nnc2c(=O)[nH]1 [Zaprinast] | < 5
COC(=O)c1ccc(O)c2nc3c(C=O)c(O)cc(O)c3nc12 [Lomofungin] | < 5
Cc1ccc(/C(=C\CN2CCCC2)c2ccccn2)cc1 [Trans-triprolidine HCl] | < 5
Nc1nc2c(ncn2COCCO)c(=O)[nH]1 [Acycloguanosine] | < 5
Nc1ccn([C@H]2CC[C@@H](CO)O2)c(=O)n1 [2',3' - dideoxycytidine] | < 5
CCC(C)(C)C(=O)O[C@H]1C[C@@H](C)C=C2C=C[C@H](C)[C@H](CC[C@@H]3C[C@@H](O)CC(=O)O3)[C@H]21 [Simvastatin] | < 5
C/N=C(/NC#N)NCCSCc1csc(NC(=N)N)n1 [Tiotidine] | 11.6
CCCCC(C)(O)C/C=C/[C@H]1[C@H](O)CC(=O)[C@@H]1CCCCCCC(=O)OC (mixture of isomers) [Misoprostol] | < 5
O=C(NCCNCC(O)COc1ccc(O)cc1)N1CCOCC1 (stereo not drawn) [Xamoterol hemifumarate] | < 5
O=P(O)(O)C(O)(Cn1ccnc1)P(=O)(O)O [Zoledronic acid] | < 5
c1ccc2c(CC3=NCCN3)cccc2c1 [Naphazoline HCl] | < 5

SMILES | inhibition at 50 µM [%]
O=C(O)c1cc(/N=N/c2ccc(S(=O)(=O)Nc3ccccn3)cc2)ccc1O [Sulfasalazine] | < 5
CC(C)(C)C(=O)C(Oc1ccc(Cl)cc1)n1ccnc1 (stereo not drawn) [Climbazole] | < 5
CC(=O)OCC[N+](C)(C)C [Acetylcholine Cl] | < 5
O=C(CCCN1CCC(O)(c2ccc(Cl)cc2)CC1)c1ccc(F)cc1 [Haloperidol HCl] | < 5
CC1(C)CCC2(C(=O)O)C(O)CC3(C)C(=CCC4C5(C)CC(O)C(O)C(C)(CO)C5CCC43C)C2C1 (stereo not drawn) [Polygalacic acid] | < 5
CCCCc1nc(Cl)c(CO)n1Cc1ccc(-c2ccccc2-c2nnn[nH]2)cc1 [Losartan potassium] | < 5
CC(=O)Oc1ccccc1C(=O)O [Acetylsalicylic acid] | < 5
COc1ccc2[nH]cc(CCNC(C)=O)c2c1 [Melatonin] | < 5
CC1CCc2c(N3CCC(O)CC3)c(F)cc3c(=O)c(C(=O)O)cn1c23 (stereo not drawn) [Nadifloxacin] | < 5
CNC[C@H](O)c1ccc(O)c(O)c1 [Epinephrine-(+)-tartrate l (-)] | < 5
OCCOCCN1CCN(C2=Nc3ccccc3Sc3ccccc32)CC1 [Quetiapine fumarate] | < 5
CC[C@H](C)C(=O)O[C@H]1CCC=C2C=C[C@H](C)[C@H](CC[C@@H]3C[C@@H](O)CC(=O)O3)[C@H]21 [Mevastatin] | < 5
CCOc1nc2cccc(C(=O)O)c2n1Cc1ccc(-c2ccccc2-c2nnn[nH]2)cc1 [Candesartan] | < 5
CN(C)CCOC(c1ccccc1)c1ccccc1 [Diphenhydramine HCl] | < 5
CC(=O)O[C@]1(C(C)=O)CC[C@H]2[C@@H]3C[C@H](C)C4=CC(=O)CC[C@]4(C)[C@H]3CC[C@@]21C [Medroxyprogesterone 17-acetate] | < 5
C[C@H]1C[C@@H]2[C@H]([C@@H](O)C[C@@]3(C)[C@H]2CC[C@]3(O)C(=O)CO)[C@@]2(C)C=CC(=O)C=C12 [Methylprednisolone] | < 5
CC=CC(=O)N(CC)c1ccccc1C [Crotamiton] | < 5
C[C@H](N)[C@H](O)c1ccccc1 [Phenylpropanolamine] | < 5
COC(=O)Nc1nc2cc(C(=O)c3ccccc3)ccc2[nH]1 [Mebendazol] | < 5
CCCCCOC(=O)Nc1nc(=O)n([C@@H]2O[C@H](C)[C@@H](O)[C@H]2O)cc1F [Capecitabine] | < 5
COC(=O)[C@H](c1ccccc1Cl)N1CCc2sccc2C1 [Clopidogrel sulfate] | < 5
CC[C@]1(O)C[C@@H]2CN(CCc3c([nH]c4ccccc34)[C@@](C(=O)OC)(c3cc4c(cc3OC)N(C)[C@H]3[C@@](O)(C(N)=O)[C@H](O)[C@]5(CC)C=CCN6CC[C@]43[C@@H]65)C2)C1 [Vindesine] | < 5
CCC(=O)O[C@@H](O[P@](=O)(CCCCc1ccccc1)CC(=O)N1C[C@H](C2CCCCC2)C[C@H]1C(=O)O)C(C)C [Fosinopril] | < 5
COc1ccc(C2CNC(=O)C2)cc1OC1CCCC1 (stereo not drawn) [Rolipram] | < 5
CC(=O)O[C@H]1C(=O)[C@@]2(C)[C@H]([C@H](OC(=O)c3ccccc3)[C@]3(O)C[C@H](OC(=O)[C@H](O)[C@@H](NC(=O)c4ccccc4)c4ccccc4)C(C)=C1C3(C)C)[C@]1(OC(C)=O)CO[C@@H]1C[C@@H]2O [Taxol] | 26.9
c1ccc2c(c1)OCC(C1=NCCN1)O2 (stereo not drawn) [Idazoxan] | < 5
